Measurements published in patent US4399274A, “Isolation of non-ionic lipophilic materials on macroreticular polymeric absorbents” (priority 1981, dated 1983).

Test: Partition of avermectins between aqueous acetone and Duolite ES-863 resin (HPLC of supernatant before and after equilibration)
[1] = 21.4% acetone (vol), 4 ml supernatant, 1 g ES-863 resin, equilibrated for an hour
[2] = 23.1% acetone (vol), 4 ml supernatant, 1 g ES-863 resin, equilibrated for an hour
[3] = 25.0% acetone (vol), 4 ml supernatant, 1 g ES-863 resin, equilibrated for an hour
[4] = 27.3% acetone (vol), 4 ml supernatant, 1 g ES-863 resin, equilibrated for an hour
[5] = 37.5% acetone (vol), 4 ml supernatant, 1 g ES-863 resin, equilibrated for an hour
[6] = 42.9% acetone (vol), 4 ml supernatant, 1 g ES-863 resin, equilibrated for an hour
[7] = 50.0% acetone (vol), 4 ml supernatant, 1 g ES-863 resin, equilibrated for an hour
[8] = 60.0% acetone (vol), 4 ml supernatant, 1 g ES-863 resin, equilibrated for an hour
[9] = 82.2% acetone, ES-863 resin, similar procedures
[10] = 68.0% acetone, ES-863 resin, similar procedures
[11] = 73.3% acetone, ES-863 resin, similar procedures
[12] = 77.1% acetone, ES-863 resin, similar procedures
[13] = 80.0% acetone, ES-863 resin, similar procedures

Description: After standing overnight they were centrifuged and 4 ml of each supernatant was transferred to tubes containing 1 g each of purified ES-863 resin. An aliquot was also taken for HPLC assay.
The samples containing the resin were equilibrated for an hour, then centrifuged. The supernatants were assayed by HPLC. A comparison of the assays before and after equilibration represent the partition between the solvent and the adsorbent.

| Compound | % Remaining in Solution [1] | % Remaining in Solution [2] | % Remaining in Solution [3] | % Remaining in Solution [4] | % Remaining in Solution [5] | % Remaining in Solution [6] | % Remaining in Solution [7] | % Remaining in Solution [8] | % Remaining in Solution [9] | % Remaining in Solution [10] | % Remaining in Solution [11] | % Remaining in Solution [12] | % Remaining in Solution [13] |
| --- | --- | --- | --- | --- | --- | --- | --- | --- | --- | --- | --- | --- | --- |
| COC1CC(OC2C(C)OC(OC3C(C)=CCC4CC(CC5(CC(O)C(C)C(C(C)C)O5)O4)OC(=O)C4C=C(C)C(O)C5OCC(=CC=CC3C)C45O)CC2OC)OC(C)C1O (stereo not drawn) [B2b] | < 2% | 4.80% | 5.08% | 2.34% | < 3% | 3.89% | 4.35% | 33.3% | 135% | – | – | – | – |
| COC1CC(OC2C(C)OC(OC3C(C)=CCC4CC(CC5(C=CC(C)C(C(C)C)O5)O4)OC(=O)C4C=C(C)C(OC)C5OCC(=CC=CC3C)C45O)CC2OC)OC(C)C1O (stereo not drawn) [A1b] | 4.56% | 4.85% | 5.63% | 6.42% | 3.18% | 3.13% | 2.42% | 1.69% | 79.0% | 10.6% | 68.1% | 111% | 145% |
| COC1CC(OC2C(C)OC(OC3C(C)=CCC4CC(CC5(CC(O)C(C)C(C(C)C)O5)O4)OC(=O)C4C=C(C)C(OC)C5OCC(=CC=CC3C)C45O)CC2OC)OC(C)C1O (stereo not drawn) [A2b] | 2.75% | 3.89% | 5.38% | 3.73% | 2.70% | 1.71% | 0.57% | 0.3% | 128% | 26.8% | 64.8% | 94.4% | 117% |
| COC1CC(OC2C(C)OC(OC3C(C)=CCC4CC(CC5(C=CC(C)C(C(C)C)O5)O4)OC(=O)C4C=C(C)C(O)C5OCC(=CC=CC3C)C45O)CC2OC)OC(C)C1O (stereo not drawn) [B1b] | 3.73% | 5.03% | 6.32% | 4.55% | 2.59% | 2.13% | 0.90% | 1.53% | 123% | 20.4% | 5.15% | 73.8% | 94.2% |
| CCC(C)C1OC2(C=CC1C)CC1CC(CC=C(C)C(OC3CC(OC)C(OC4CC(OC)C(O)C(C)O4)C(C)O3)C(C)C=CC=C3COC4C(OC)C(C)=CC(C(=O)O1)C34O)O2 (stereo not drawn) [A1a] | 4.40% | 6.75% | 7.09% | 8.42% | 3.60% | 4.39% | 3.03% | 2.10% | 136% | 5.68% | 19.7% | 36.2% | 51.5% |
| CCC(C)C1OC2(CC3CC(CC=C(C)C(OC4CC(OC)C(OC5CC(OC)C(O)C(C)O5)C(C)O4)C(C)C=CC=C4COC5C(OC)C(C)=CC(C(=O)O3)C45O)O2)CC(O)C1C (stereo not drawn) [A2a] | 5.36% | 6.54% | 7.86% | 6.99% | 4.19% | 3.76% | 2.12% | 2.72% | 110% | 15.2% | 42.1% | 65.7% | 86.7% |
| CCC(C)C1OC2(CC3CC(CC=C(C)C(OC4CC(OC)C(OC5CC(OC)C(O)C(C)O5)C(C)O4)C(C)C=CC=C4COC5C(O)C(C)=CC(C(=O)O3)C45O)O2)CC(O)C1C (stereo not drawn) [B2a] | 5.10% | 6.09% | 7.29% | 5.37% | 3.21% | 2.65% | 1.36% | 4.95% | 165% | 27.8% | 60.4% | 82.1% | 99.8% |
